Assay results published in patent publication US9493466B2, “Treatment of cancer with TOR kinase inhibitors” (Signal Pharmaceuticals, LLC, priority 2011, dated 2016).

Tests used:
[1] = system: NSCLC primary tumor grafts; assay: Low passage tumorgraft models of NSCLC; assay type: in vivo, immunocompromised mice; settings: 1, 5 and 10 mg/kg once daily for 28 days
Experimental: In Vivo Evaluation of Compound 1 in Low Passage Tumorgraft Models of Non-Small Cell Lung Cancer (NSCLC). The objective of the study was to evaluate the single agent efficacy of Compound 1 in non-small cell lung cancer (NCSLC) models. The antitumor activity of Compound 1 was evaluated in low passage non-small cell lung cancer (NSCLC) tumorgraft models. The tumorgrafts were developed by directly implanting the human tumor fragments into immunocompromised mice and then subsequently passaged in vivo. The tumors from these primary tumorgrafts have preserved biological and morphological characteristics of the original human tumors. The antitumor activity of Compound 1 was evaluated at three dose levels (1, 5 and 10 mg/kg) with once daily dosing for 28 days. During the course of the study antitumor activity was evaluated by measuring the tumors.

[2] = system: HCT-116 tumors; assay: HCT-116 human colorectal cancer xenograft model; assay type: in vivo, SCID mice
Experimental: HCT-116 Human Colorectal Cancer Xenograft Model. The HCT-116 cell line was obtained from American Tissue Culture Collection (ATCC) (Gaithersberg, Md.) and grown in growth medium containing McCoy's 5A medium with 2 mM L-glutamine adjusted to contain 90% and 10% of fetal bovine serum. The cells were detached from tissue culture flasks using trypsin-EDTA. After centrifugation, the cell pellets were suspended in phosphate buffered saline (PBS) and counted using a hemocytometer. Matrigel was added to the cell suspension to adjust the final volume to 2×10^6 cells/0.1 mL of 1:1 mixture of Matrigel: PBS.
Female 6-8 weeks old CB17 SCID mice were obtained from Charles River Laboratories at a body weight of 17-20 g. Mice were anesthetized with inhaled isoflurane and then inoculated with HCT-116 tumor cells subcutaneously on the right hind leg with 0.1 mL of a single cell suspension using a sterile 1 mL syringe fitted with a 26 gauge needle. Following inoculation, the mice were returned to microisolator cages. The tumors were allowed to grow to about 100 mm^3 prior to randomization. The typical number of days required for tumors to reach 100 mm^3 was 7 to 8 days. The tumor of each animal was measured and animals with tumors ranging between 100 and 150 mm^3 were included in the study. The animals were distributed randomly into various cages and the cages were randomly assigned to vehicle, positive control, or test article groups. All of the mice were tagged with metal ear tags on the right ear. A typical group consisted of 8 to 10 animals.
Compound 1 was formulated in 0.5% CMC and 0.25% Tween 80 in water (as a suspension). The formulations were homogenized using a Teflon pestle and mortar (Potter-Elvehjem tissue grinder). Between the doses, the formulated compound was stored under constant stirring using a magnetic stirrer at 4° C. in the dark. The test article and vehicle were administered by oral gavage. The positive control (rapamycin) was prepared as solution in 2% ethanol, 45% polyethyleneglycol 400, and 53% saline and administered by IP injection. Vehicle and the test article were dosed in a volume of 5 mL/kg. The positive control rapamycin was dosed in a volume of 10 mL/kg. Sterile syringes and gavage needles were used for compound administration. All the procedures including injections were done in biosafety cabinets sprayed with ethanol prior to use.
Groups of female SCID mice bearing HCT-116 tumors (n=9-10/group) were dosed orally with vehicle or Compound 1 (1 mg/kg to 50 mg/kg) twice daily (BID), once daily (QD), every second day (Q2D), every third day (Q3D) or every 5th day (Q5D) throughout the study starting when the tumor volumes reached approximately 100 mm^3. The BID dose groups were dosed with a 10 h separation between the morning and evening doses. In the positive control group, rapamycin (n=6/group) was administered via the intraperitoneal (IP) route Q3D. At the end of each study, plasma and/or tumor samples were collected.
Tumor volumes were determined prior to the initiation of treatment and were considered as the starting volumes. Thereafter, tumors were measured twice a week for the duration of the study. The long and short axes of each tumor were measured using a digital caliper in millimeters. The tumor volumes were calculated using the formula: width^2×length/2 (using long [L] and short [W] axes of tumors). The tumor volumes were expressed in cubic millimeters (mm^3). Tumor volume data are expressed as mean±SE. The difference in tumor volume between vehicle and treatment group was expressed in percent volume reduction=100−tumor volume of treated/tumor volume of control×100. Statistical analysis was done using Graphpad Prism. Comparison between multiple groups was done using one-way ANOVA with Newman-Keuls post-test with a 95% significance level.
Initial body weights were recorded prior to the initiation of treatment using a digital scale. […]

[3] = system: PC-3, A549, HCT 116, U87-MG, MDA-MB-231, NCI-H23, NCI-H460, T47D; assay: Growth inhibition assay for cell lines with varying sensitivity to rapamycin; assay type: cell-based; settings: 3 days; including cell types partially sensitive or insensitive to Rapamycin; FIG. 8
Experimental: Growth Inhibition Assay for Cell Lines with Varying Sensitivity to Rapamycin (Compound 1). Cells were plated in 96-well plates at densities determined for each cell line and the following day were treated with a range of Compound 1 concentrations. The cells were incubated for 3 days at 37° C. and then […] of WST-1 (Roche) for PC-3, A549, HCT 116, U87-MG, MDA-MB-231, and NCI-H23) or […] CellTiter-Glo reagent (Promega) for NCI-H460, T47D) was added to each well and the assay was completed according to manufacturer protocols. The percentage inhibition at each concentration of compound was normalized to the DMSO control values. The percentage inhibition was determined for each replicate and then the 3 values were averaged for each set of triplicate wells. All data were analyzed using XLfit from IDBS. The formula used for determining IC50 in Xlfit was model number 205, which utilizes a 4-parameter logistic model or sigmoidal dose-response model to calculate IC50 values. IC50 values are reported as an average.
Rapamycin effects on proliferation tend to plateau in most cell lines.

CO[C@H]1CC[C@H](N2C(=O)CNc3ncc(-c4ccc(C(C)(C)O)nc4)nc32)CC1 [Compound 1, 7-(6-(2-hydroxypropan-2-yl)pyridin-3-yl)-1-((1r,4r)-4-methoxycyclohexyl)-3,4-dihydropyrazino-[2,3-b]pyrazin-2(1H)-one]
growth of tumor grafts [1]: significantly inhibited | tumor growth inhibition ([2]; 5 mg/kg (BID), 10 mg/kg (BID), 25 mg/kg (QD and Q2D), Day 25): Significant (p<0.001) tumor growth inhibition | Body weight loss ([2]; 10 mg/kg BID): 16.9% | tumor volume reduction ([2]; 10 mg/kg BID): Approximately 50% | Body weight loss ([2]; 25 mg/kg QD): 14% | minimum dose required to obtain >65% tumor volume reduction compared to vehicle ([2]; QD oral): 25 mg/kg | change in body weight ([2]; any other group): No significant change | cell growth inhibition [3]: potent cell growth inhibition
